Laboratory results published in patent US20200239530A1, “COMPOUNDS AND METHODS OF MODULATING PROTEIN DEGRADATION” (Vividion Therapeutics, Inc., priority 2017, published 2020).
Where two headings read alike, the source gives them in different places. Each block holds one compound with its values, some of them ahead of it.

Tests used:
Type in all cases: binding
[1] = target: T1, Polycomb group RING finger protein 6 (PCGF6) (Homo sapiens, UniProt Q9BYE7); experiment: Cysteine liganding, probe competition
T1 construct: Cells were resuspended in cold PBS on ice and sonicated with a probe sonicator to achieve lysis; endogenous in cells
T1 sequence (Q9BYE7 1-350): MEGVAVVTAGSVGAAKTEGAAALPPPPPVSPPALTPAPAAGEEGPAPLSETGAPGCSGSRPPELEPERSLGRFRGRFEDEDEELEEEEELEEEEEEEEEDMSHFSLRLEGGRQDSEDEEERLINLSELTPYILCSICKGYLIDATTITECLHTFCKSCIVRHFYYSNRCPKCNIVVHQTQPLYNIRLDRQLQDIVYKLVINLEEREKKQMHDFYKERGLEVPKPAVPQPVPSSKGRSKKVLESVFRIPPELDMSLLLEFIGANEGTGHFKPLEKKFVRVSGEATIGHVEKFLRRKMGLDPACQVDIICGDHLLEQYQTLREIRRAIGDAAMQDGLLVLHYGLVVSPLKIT
Description: (§1) Cells were resuspended in cold PBS on ice and sonicated with a probe sonicator to achieve lysis. 200 μL of lysate containing 5 mg/ml proteome was treated with 2 μL of 100× compound stock in a 2-mL deep-well plate. The treated lysate was subsequently incubate at 25° C. for 1 hr with shaking at 600 rpm. The treated lysate was further incubated with 2 μL of 10 mM desthiobiotin iodoacetamide probe at 25° C. for 1 hr with shaking at 600 rpm. Next, the lysate was further treat with 20 μL of solution of PBS containing 11 mM MgSO4 and 2.5% Turbonuclease stock and incubated at 25° C. for 20 minutes with shaking at 600 rpm. 1.7 mL ice-cold acetone was added to each well and incubated at −20° C. for 2 hr, followed by max speed (4200 rpm) spin for 45 min. Acetone was then decanted and the plates were blotted to remove acetone. The plates were then dried in open air for 20 minutes. After drying, the plates were then covered with foil seal and stored at −80° C. overnight.
(§2) The next day, samples were re-suspended in 90 μL of solution of 9M urea, 50 mM ammonium bicarbonate and 10 mM DTT by incubating at 65C for 20 min with shaking at 1500 rpm. Next, samples were cooled to 37° C. and then 10 μL of 500 mM iodoacetamide solution (92.48 mg/ml) was added. The samples were then incubated at 37° C. for 30 min with shaking at 600 rpm.
(§3) ZEBA desalting plates were equilibrated 4 times using 250 μL of 2M urea, 50 mM ammonium bicarbonate solution followed by centrifugation at 1500 rpm for 2 minutes. After equilibration was complete, samples were applied to ZEBA desalting plate and spin at 1500 rpm for 2 min on top of 1 mL 96-well deep-well collection plate to buffer exchange samples. 4 μL of solution containing 25 mM CaCl2 and 0.25 mg/mL trypsin was added to the plate and the plate was then incubated at 37° C. for 2 hrs with shaking at 600 rpm. 300 μL of solution containing 5% high-capacity streptavidin agarose slurry in 25 mM Tris-HCl pH 7.5, 150 mM NaCl, and 0.1% NP-40 then added. The plate was incubated at 25° C. for 2 hrs with shaking at 600 rpm. Samples were transferred to 25 μm filter plate and spin at 1000 rpm for 2 min. Samples were then washed 3 times with 0.75 mL of wash buffer (25 mM Tris-HCl pH 7.5, 150 mM NaCl, and 0.1% NP-40) followed by washing 3 times with 0.75 mL PBS, and then 4 times with 0.75 mL water. After the washing step, samples were eluted into polypropylene 96-well plate by addition of 250 µL of 50% MeCN/water, 0.1% formic acid and allowed to gravity drip for 10 min, followed by centrifugation at 1000 rpm for 2 min. Speedvac was used to dry the plates at about 45° C. for […]. Then the plates were covered with foil seal and stored at −20° C.
(§4) Samples were resuspended by addition of 20 μl of 12.5% ACN, 0.1% formic acid solution, covered with foil seal, and incubated at 42° C. for 10 minutes with shaking at 600 rpm. Then add 30 μL of 0.1% formic acid solution was added and the plate was covered and incubated at 42° C. for 10 minutes with shaking at 600 rpm. Seal plate was then sealed with a 96-well silicon mat for analysis.

Q8NEG5 = target: T2, Q8NEG5 (Homo sapiens, UniProt Q8NEG5); experiment: Cysteine liganding, probe competition (Table 2B)
T2 construct: endogenous in cells; whole-cell lysate
T2 sequence (Q8NEG5 1-633): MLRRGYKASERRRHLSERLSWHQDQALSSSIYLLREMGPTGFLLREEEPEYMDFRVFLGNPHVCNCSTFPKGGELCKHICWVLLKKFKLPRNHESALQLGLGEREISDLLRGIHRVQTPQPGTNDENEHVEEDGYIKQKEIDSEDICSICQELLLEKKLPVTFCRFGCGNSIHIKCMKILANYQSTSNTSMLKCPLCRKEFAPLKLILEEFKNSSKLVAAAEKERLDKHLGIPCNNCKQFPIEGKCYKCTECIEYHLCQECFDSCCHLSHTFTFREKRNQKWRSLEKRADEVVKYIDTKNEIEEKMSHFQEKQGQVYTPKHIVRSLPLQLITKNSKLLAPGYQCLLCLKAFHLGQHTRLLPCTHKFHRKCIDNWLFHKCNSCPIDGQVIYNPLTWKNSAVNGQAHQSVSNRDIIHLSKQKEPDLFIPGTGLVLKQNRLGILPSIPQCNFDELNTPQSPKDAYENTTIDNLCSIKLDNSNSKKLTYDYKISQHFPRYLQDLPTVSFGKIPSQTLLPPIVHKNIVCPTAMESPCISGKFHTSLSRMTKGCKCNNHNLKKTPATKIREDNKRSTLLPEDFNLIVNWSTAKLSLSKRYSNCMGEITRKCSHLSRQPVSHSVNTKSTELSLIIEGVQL
From the text: The following 96-well sample prep protocol was used for sample preparation.

[2] = target: T3, RNF25 E3 ubiquitin-protein ligase RNF25 (Homo sapiens, UniProt Q96BH1); experiment: Cysteine liganding, probe competition; design: endogenous in cells
T3 sequence (Q96BH1 1-459): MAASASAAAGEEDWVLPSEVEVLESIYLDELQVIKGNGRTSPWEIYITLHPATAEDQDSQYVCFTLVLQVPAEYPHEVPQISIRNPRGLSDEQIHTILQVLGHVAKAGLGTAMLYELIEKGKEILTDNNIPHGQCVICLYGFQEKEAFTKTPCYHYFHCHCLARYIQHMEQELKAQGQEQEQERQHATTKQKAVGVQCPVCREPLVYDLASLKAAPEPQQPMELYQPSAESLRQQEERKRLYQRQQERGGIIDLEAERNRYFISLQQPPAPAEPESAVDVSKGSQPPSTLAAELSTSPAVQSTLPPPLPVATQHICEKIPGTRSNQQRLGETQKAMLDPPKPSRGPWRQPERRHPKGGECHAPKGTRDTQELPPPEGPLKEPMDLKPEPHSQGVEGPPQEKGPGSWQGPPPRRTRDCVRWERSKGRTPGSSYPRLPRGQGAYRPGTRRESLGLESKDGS
Description: as §1, §2, §3, §4

SMILES: COc1ccc2c(c1)CCCN2C(=O)CCl [KB02]
inhibition at 500 µM ([1]; 500 uM, read-out: KB02_500 uM_percent_inhibition): 37%
inhibition at 500 µM (Q8NEG5; read-out: KB02_500 uM_percent_inhibition): 35%
Liganded ([2]; RNF25 Res# 417, uniprot Q96BH1): YES

KB05_500 uM_percent_inhibition ([1]; 500 uM): 48%
inhibition at 500 µM ([1]; 500 uM, read-out: KB05_500 uM_percent_inhibition): 33%
inhibition at 500 µM (Q8NEG5; read-out: KB05_500 uM_percent_inhibition): 16%
inhibition at 100 µM ([2]; 100 uM, UniProt Q96BH1, read-out: percent_inhibition): 11%
SMILES: C=CC(=O)N(c1ccccc1)c1ccc(Br)cc1 [KB05]

SMILES: O=C(CCl)Nc1cc(C(F)(F)F)cc(C(F)(F)F)c1 [KBO3]
KB03_100 uM_percent_inhibition ([1]; 100 uM): 41%
KB03_500 uM_percent_inhibition (Q8NEG5; 500 uM): 8%
100 ave ([2]; uniprot Q96BH1): 14.3
500 Max ([2]; uniprot Q96BH1): 62.0
500 ave ([2]; uniprot Q96BH1): 62.0
100 Max ([2]; uniprot Q96BH1, unit assumed): 14.3%
